In the data set the test system is esterase. As to the kind of experiment: Half-life time was determined for esterase-catalyzed hydrolysis of the phenol ester bond in porcine liver esterase. The data set is classed as ADME, Sus scrofa. The following applies: pig.

The half-life is the time in which the quantity being followed falls by half. On to `CC(C)C[C@H]1NC(=O)Oc2ccccc2/C=C\C(=O)NC(=O)[C@H](Cc2ccc(O)cc2)NC(=O)[C@@H](C)NC(=O)CNC(=O)[C@H](Cc2ccccc2)NC1=O`, for which the half-life was 12.7 h.
